The results in this text go back to ChEMBL document CHEMBL5241052, “Dual-target kinase drug design: Current strategies and future directions in cancer therapy” (Eur J Med Chem, 2020).

The target of assay [1] is T1, Epidermal growth factor receptor (Homo sapiens, UniProt P00533). The assay can be described thus: Inhibition of human EGFR.
Assay [2] concerns the target Proto-oncogene tyrosine-protein kinase Src (Homo sapiens, UniProt P12931). The assay can be described thus: Inhibition of Src (unknown origin).
Another assay deals with 4T1. The assay can be described thus: Antiproliferative activity against 4T1 cells (unknown origin). Particulars: Mus musculus. The class given is functional, cell-based.
In a further assay the test system is MDA-MB-231. The assay can be described thus: Antiproliferative activity against MDA-MB-231 cells (unknown origin). The class given is functional, cell-based. Particulars: Homo sapiens.
In assay [3] the target is Proto-oncogene tyrosine-protein kinase receptor Ret (Homo sapiens, UniProt P07949). The assay can be described thus: Inhibition of RET (unknown origin) by invitro kinase assay.
Assay [4] concerns the target Vascular endothelial growth factor receptor 2 (Homo sapiens, UniProt P35968). The assay can be described thus: Inhibition of VEGFR2 (unknown origin) by invitro kinase assay.
In assay [5] the target is Proto-oncogene tyrosine-protein kinase receptor Ret (Homo sapiens, UniProt P07949, V804M). The assay can be described thus: Inhibition of RET V804M mutant (unknown origin) by invitro kinase assay.
A further assay relates to MES-SA. The assay can be described thus: Antiproliferative activity against human MES-SA cells assessed as growth inhibition and measured after 96 hrs by micro plate reader analysis. The class given is functional, cell-based.
A further assay has as its system DU-145. The assay can be described thus: Antiproliferative activity against human DU-145 cells assessed as growth inhibition and measured after 96 hrs by micro plate reader analysis. It is filed as functional, cell-based. Particulars: DU-145, 96 h.
The target of assay [6] is T1, Epidermal growth factor receptor. The assay can be described thus: Inhibition of human EGFR phosphorylation by invitro enzyme assay.
Assay [7] concerns the target Serine/threonine-protein kinase B-raf (Homo sapiens, UniProt P15056, V600E). The assay can be described thus: Inhibition of human BRAF V600E mutant.
A further assay deals with MCF7. The assay can be described thus: Antiproliferative activity against human MCF7 cells at 10 uM by MTT assay. It is filed as functional, cell-based.
Another assay deals with COLO 205. The assay can be described thus: Antiproliferative activity against human COLO 205 cells at 10 uM by MTT assay. It is filed as functional, cell-based.
The subject of another assay is A-375. The assay can be described thus: Antiproliferative activity against human A-375 cells at 10 uM by MTT assay. It is filed as functional, cell-based.
Another assay has as its system LoVo. The assay can be described thus: Antiproliferative activity against human LoVo cells at 10 uM by MTT assay. It is filed as functional, cell-based.
In another assay the test system is A549. The assay can be described thus: Antiproliferative activity against human A549 cells at 10 uM by MTT assay. It is filed as functional, cell-based.
Another assay concerns HCT-116. The assay can be described thus: Antiproliferative activity against human HCT-116 cells at 10 uM by MTT assay. The class given is functional, cell-based.
Another assay deals with FTC-133. The assay can be described thus: Antiproliferative activity against human FTC-133 cells harboring PTEN mutation assessed as cell growth inhibition at 5 uM by cell counting assay. It is filed as functional.
For assay [8], the target named is Serine/threonine-protein kinase mTOR (Homo sapiens, UniProt P42345). The assay can be described thus: Inhibition of mTOR (unknown origin) by ELISA based kinase assay.
The nature of assay [9]: Antiproliferative activity against human HTh7 cells harboring Ras mutation assessed as cell growth inhibition at 5 uM by cell counting assay. The class given is functional.
The target in a further assay is Aurora kinase A (Homo sapiens, UniProt O14965). The assay can be described thus: Inhibition of AURA (unknown origin).
The nature of assay [10]: Antiproliferative activity against human C643 cells harboring Ras mutation assessed as cell growth inhibition at 5 uM by cell counting assay. It is filed as functional.
In another assay the test system is TPC1. The assay can be described thus: Antiproliferative activity against human TPC1 cells harboring RET/PTC mutation assessed as cell growth inhibition at 5 uM by cell counting assay. It is filed as functional.
Assay [11] in a line: Antiproliferative activity against human HTh104 cells harboring BRAF V600E mutation assessed as cell growth inhibition at 5 uM by cell counting assay. The class given is functional.
A further assay deals with SW-1736. The assay can be described thus: Antiproliferative activity against human SW-1736 cells harboring BRAF V600E mutation assessed as cell growth inhibition at 5 uM by cell counting assay. It is filed as functional.
Another assay relates to BCPAP. The assay can be described thus: Antiproliferative activity against human BCPAP cells harboring BRAF V600E mutation assessed as cell growth inhibition at 5 uM by cell counting assay. The class given is functional.

T1 sequence (P00533 whole entry): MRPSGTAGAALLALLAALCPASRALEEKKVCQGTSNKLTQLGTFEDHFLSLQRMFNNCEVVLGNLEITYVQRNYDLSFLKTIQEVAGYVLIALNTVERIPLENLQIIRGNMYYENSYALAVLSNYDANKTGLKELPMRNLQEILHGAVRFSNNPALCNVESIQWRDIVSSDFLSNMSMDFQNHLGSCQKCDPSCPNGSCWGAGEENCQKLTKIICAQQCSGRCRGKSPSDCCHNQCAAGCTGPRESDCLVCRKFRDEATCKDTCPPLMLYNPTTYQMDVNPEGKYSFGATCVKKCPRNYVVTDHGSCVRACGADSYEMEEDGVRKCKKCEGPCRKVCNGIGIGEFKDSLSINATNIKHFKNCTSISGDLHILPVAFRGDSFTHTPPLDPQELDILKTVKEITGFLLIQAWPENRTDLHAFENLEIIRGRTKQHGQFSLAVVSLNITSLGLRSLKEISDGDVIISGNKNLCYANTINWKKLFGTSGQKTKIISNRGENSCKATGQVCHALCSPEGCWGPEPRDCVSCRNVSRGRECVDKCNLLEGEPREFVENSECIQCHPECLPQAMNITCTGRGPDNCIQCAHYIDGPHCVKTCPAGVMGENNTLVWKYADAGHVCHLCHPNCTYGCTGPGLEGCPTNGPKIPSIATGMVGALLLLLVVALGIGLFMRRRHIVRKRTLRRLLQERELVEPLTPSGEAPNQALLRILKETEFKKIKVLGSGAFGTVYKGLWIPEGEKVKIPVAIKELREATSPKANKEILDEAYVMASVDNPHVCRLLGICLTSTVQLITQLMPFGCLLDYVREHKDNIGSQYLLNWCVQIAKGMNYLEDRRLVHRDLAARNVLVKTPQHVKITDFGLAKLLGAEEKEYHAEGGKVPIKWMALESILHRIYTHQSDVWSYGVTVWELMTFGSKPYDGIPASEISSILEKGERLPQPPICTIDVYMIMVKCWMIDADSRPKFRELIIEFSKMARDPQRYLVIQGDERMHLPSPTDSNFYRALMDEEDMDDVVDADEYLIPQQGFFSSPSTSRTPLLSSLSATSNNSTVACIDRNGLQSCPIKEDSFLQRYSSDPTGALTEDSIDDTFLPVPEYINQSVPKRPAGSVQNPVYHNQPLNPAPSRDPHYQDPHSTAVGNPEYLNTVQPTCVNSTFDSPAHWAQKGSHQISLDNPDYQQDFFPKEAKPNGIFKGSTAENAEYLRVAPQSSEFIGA
Sequence of Vascular endothelial growth factor receptor 2 (P35968 whole entry): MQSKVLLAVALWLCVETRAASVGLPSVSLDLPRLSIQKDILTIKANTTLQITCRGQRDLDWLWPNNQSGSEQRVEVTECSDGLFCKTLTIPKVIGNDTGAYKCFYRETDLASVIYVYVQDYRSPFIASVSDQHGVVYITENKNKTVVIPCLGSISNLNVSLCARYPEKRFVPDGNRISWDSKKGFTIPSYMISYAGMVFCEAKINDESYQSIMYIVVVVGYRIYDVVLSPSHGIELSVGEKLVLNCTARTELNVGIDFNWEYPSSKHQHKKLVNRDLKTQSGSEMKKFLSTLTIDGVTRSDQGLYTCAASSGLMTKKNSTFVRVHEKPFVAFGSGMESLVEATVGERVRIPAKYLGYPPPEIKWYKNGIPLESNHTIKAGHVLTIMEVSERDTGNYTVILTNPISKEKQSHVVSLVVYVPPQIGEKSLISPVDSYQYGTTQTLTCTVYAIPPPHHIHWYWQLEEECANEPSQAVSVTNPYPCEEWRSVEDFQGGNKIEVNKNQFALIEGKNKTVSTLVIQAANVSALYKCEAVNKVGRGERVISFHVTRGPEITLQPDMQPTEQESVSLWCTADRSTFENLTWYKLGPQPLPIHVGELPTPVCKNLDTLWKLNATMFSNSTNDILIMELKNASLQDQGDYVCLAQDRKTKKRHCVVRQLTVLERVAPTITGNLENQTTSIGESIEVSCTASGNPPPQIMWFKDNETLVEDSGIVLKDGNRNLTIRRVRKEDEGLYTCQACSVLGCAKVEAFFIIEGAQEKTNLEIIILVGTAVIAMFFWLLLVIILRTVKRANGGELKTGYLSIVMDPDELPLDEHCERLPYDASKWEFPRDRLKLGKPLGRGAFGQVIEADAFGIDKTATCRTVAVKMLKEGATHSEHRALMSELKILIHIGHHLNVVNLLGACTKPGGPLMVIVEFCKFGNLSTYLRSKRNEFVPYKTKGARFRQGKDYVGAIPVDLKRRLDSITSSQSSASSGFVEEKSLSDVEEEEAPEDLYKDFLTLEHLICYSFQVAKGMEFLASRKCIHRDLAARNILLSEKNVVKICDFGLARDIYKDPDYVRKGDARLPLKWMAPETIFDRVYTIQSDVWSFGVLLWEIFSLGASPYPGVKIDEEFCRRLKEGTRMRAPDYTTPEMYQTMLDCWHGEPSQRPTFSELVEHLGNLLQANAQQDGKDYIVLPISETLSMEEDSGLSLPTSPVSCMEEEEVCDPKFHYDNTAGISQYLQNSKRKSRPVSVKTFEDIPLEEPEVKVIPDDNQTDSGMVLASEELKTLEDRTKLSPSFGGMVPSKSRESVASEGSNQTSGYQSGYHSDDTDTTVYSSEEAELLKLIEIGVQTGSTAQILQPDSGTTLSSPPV
Sequence of Aurora kinase A (O14965 whole entry): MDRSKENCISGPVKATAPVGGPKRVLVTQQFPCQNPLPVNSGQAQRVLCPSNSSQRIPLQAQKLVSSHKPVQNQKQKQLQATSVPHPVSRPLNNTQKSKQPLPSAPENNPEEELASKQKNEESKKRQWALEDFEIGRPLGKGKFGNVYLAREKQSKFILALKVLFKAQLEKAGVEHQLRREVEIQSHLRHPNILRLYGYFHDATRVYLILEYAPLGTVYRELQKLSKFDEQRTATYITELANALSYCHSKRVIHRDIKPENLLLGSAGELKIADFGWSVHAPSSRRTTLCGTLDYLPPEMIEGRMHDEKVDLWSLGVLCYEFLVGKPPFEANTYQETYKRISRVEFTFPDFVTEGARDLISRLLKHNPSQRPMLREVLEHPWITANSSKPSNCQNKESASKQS
Sequence of Proto-oncogene tyrosine-protein kinase receptor Ret (Homo sapiens, UniProt P07949, V804M) (P07949 29-1114 V804M limits assumed): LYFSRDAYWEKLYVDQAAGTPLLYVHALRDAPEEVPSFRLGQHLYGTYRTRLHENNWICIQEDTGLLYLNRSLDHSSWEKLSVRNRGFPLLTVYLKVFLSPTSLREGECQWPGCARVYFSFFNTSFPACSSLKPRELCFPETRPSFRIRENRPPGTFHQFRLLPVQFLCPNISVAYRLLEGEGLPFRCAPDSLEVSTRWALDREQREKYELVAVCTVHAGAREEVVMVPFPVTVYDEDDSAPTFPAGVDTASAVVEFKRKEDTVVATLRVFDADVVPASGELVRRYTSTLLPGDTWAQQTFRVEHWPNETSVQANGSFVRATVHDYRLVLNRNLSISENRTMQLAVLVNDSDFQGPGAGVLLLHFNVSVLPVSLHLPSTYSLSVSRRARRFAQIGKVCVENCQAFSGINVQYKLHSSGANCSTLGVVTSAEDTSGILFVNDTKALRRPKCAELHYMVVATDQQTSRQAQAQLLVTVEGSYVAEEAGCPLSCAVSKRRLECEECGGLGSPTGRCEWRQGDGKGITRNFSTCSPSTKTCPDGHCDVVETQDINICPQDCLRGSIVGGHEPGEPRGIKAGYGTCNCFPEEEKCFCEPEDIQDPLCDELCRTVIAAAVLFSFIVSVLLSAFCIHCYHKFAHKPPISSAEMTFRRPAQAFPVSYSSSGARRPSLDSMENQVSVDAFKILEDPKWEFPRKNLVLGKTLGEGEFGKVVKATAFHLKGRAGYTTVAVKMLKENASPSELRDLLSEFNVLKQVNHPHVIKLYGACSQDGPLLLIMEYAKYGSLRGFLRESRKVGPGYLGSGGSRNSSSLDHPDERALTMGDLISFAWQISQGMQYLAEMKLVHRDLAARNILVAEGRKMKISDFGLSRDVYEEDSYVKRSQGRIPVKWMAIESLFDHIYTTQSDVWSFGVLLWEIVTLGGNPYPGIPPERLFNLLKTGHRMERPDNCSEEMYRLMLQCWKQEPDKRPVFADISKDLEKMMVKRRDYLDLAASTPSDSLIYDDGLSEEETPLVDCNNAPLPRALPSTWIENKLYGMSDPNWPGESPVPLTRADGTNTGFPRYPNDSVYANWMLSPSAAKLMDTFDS
Sequence of Proto-oncogene tyrosine-protein kinase Src (P12931 2-536 limits assumed): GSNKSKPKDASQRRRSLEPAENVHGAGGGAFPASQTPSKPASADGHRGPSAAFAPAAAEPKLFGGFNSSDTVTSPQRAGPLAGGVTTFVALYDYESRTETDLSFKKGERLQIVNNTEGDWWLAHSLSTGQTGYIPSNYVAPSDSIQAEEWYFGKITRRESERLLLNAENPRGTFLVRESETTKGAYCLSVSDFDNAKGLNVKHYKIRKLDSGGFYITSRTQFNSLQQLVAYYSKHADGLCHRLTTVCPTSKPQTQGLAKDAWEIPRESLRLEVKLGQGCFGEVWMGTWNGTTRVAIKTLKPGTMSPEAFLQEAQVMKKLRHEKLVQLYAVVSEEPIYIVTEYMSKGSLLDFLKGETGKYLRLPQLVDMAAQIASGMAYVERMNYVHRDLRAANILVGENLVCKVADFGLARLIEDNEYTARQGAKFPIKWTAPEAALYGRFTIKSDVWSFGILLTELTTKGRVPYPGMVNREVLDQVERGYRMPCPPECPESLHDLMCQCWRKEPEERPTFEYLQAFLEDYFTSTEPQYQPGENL

Take `CN(CCOC(=O)c1ccc(C(=O)Nc2ncnc3c2c(-c2ccc(Cl)cc2)nn3C(C)(C)C)nc1)Cc1ccc(C(=O)Nc2ccc3ncnc(Nc4cccc(Cl)c4)c3c2)cc1`: the IC50 was found to be 0.61 µM in assay [1], 1.1 µM in assay [2], 5.6 µM with 4T1 and 7.34 µM in the assay with MDA-MB-231.
As to `O=C(Cc1ccc(-n2cnc3cc(-c4ccsc4)ccc32)cc1)Nc1cccc(C(F)(F)F)c1`, the half-maximal inhibitory concentration (IC50) in assay [3], in [4] and in [5] was less than 0.001 µM throughout.
With `COc1cccc(-c2cc(=O)c3ccccc3o2)c1NC(=O)OCCOC(=O)NCCN(C)CCN/N=N/c1ccc2c(Nc3cccc(Cl)c3)ncnc2c1`, the IC50 stood at 24.5 µM in the assay with MES-SA, 11.3 µM in the assay on DU-145 and 0.102 µM in assay [6].
`CN(c1nc(-c2cnc(N)nc2)nc(N2CCOCC2)n1)C1CCN(C(=O)c2ccccc2)CC1`: the concentration for half-maximal inhibition (IC50) in assay [7] is 0.118 µM; in the assay with MCF7 it was 0.5 µM; in the assay on COLO 205, 0.09 µM; with A-375 it was 0.1 µM; in the assay with LoVo, 0.08 µM; with A549, 0.09 µM. This compound showed an IC50 in the assay on HCT-116 of 0.11 µM.
Consider `Cc1cc(S(=O)(=O)Nc2ccc(/C=C3\SC(=O)N(CC4(C)CCCCC4)C3=O)cc2)ccc1[N+](=O)[O-]`, for which the GI50 in the assay with FTC-133 was 5.9 µM; in [9] it was 1.36 µM; in assay [10] it was 4.51 µM; in the assay on TPC1, 7.26 µM; in assay [11] it was 3.37 µM; in the assay on SW-1736, 4.21 µM. The GI50 in the assay with BCPAP amounted to 3.79 µM. In addition, the IC50 is 8.23 µM in assay [8] and 0.035 µM against Aurora kinase A.
